Data on three molecules can be found in article PMC3782002 (Journal of Chemical Information and Modeling, 2013).

One may read the kcat as the maximal rate divided by the concentration of active sites. For orientation: Km means the substrate concentration at which the rate is half of its maximum. One may read the kcat/Km as the second-order rate constant that governs catalysis at low substrate concentration.

Holding throughout (assay type): biochemical, B. subtilis
The target of data set [1] is T1, GR-N75L (Bacillus subtilis, UniProt P94556, N75L).
T1 sequence (P94556 1-272 N75L): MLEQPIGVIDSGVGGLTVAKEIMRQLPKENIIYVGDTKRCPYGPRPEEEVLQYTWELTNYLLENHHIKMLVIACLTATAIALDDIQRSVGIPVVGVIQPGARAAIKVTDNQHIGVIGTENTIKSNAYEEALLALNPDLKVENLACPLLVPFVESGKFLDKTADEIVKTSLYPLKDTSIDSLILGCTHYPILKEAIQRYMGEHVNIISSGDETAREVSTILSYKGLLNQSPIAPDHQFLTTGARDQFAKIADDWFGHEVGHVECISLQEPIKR
The data set can be described thus: Coupled-enzyme IC50 assay. The following applies: N75L mutation.

The target in data set [2] is T2, GR-N75A (Bacillus subtilis, UniProt P94556, N75A).
T2 sequence (P94556 1-272 N75A): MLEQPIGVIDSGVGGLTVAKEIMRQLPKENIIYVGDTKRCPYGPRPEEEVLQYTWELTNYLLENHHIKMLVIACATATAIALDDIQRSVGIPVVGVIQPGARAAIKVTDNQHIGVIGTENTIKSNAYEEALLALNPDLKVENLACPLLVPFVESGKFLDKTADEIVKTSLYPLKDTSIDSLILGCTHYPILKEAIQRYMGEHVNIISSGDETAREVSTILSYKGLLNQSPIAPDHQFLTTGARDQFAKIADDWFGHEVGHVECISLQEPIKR
The data set can be described thus: Coupled-enzyme IC50 assay. Conditions: N75A mutation.

The target of data set [3] is T2, GR-N75A. The data set can be described thus: Steady-state kinetics of D- to L- racemization by circular dichroism at 220 nm. For orientation: Circular dichroism is the unequal absorption of left and right circularly polarised light.
The target in data set [4] is T1, GR-N75L. The data set is described as above.
Substrate in data set [5]: N[C@H](CCC(=O)O)C(=O)O
Described as above. The following applies: other: GR-WT, 25 °C, pH 8.0.

For the molecule `O=S(=O)(O)c1nc2ccccc2[nH]1` [Compound 1, 1H-benzimidazole-2-sulfonic acid], the results for the “increase in IC50 compared to the IC50 for wild-type GR” value at GR-N75L [1] and on GR-N75A [2] were 50% and 600%, respectively.

`N[C@H](CCC(=O)O)C(=O)O` [Compound 3, D-glutamate]: the figures for the kcat on GR-N75A [3] and on GR-N75L [4] were 45.6 ± 1.9 s⁻¹ and 0.15 ± 0.01 s⁻¹, respectively. In addition, the Km at GR-N75A [3] (25 °C) amounted to 730 ± 90 µM; at GR-N75L [4] (25 °C), 490 ± 100 µM.

B1: GR-WT (Bacillus subtilis subsp. subtilis str. 168) (protein)
chain: MLEQPIGVIDSGVGGLTVAKEIMRQLPKENIIYVGDTKRCPYGPRPEEEVLQYTWELTNYLLENHHIKMLVIACNTATAIALDDIQRSVGIPVVGVIQPGARAAIKVTDNQHIGVIGTENTIKSNAYEEALLALNPDLKVENLACPLLVPFVESGKFLDKTADEIVKTSLYPLKDTSIDSLILGCTHYPILKEAIQRYMGEHVNIISSGDETAREVSTILSYKGLLNQSPIAPDHQFLTTGARDQFAKIADDWFGHEVGHVECISLQEPIKR
Take B1: in data set [5], the kcat was 1.64 ± 0.03 s⁻¹ and the kcat/Km came to 12600 ± 80 M⁻¹ s⁻¹.
